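Five concentrations, 48 hours, 96-well plates. The concentration for 50% growth inhibition is given as GI50.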 Active and inactive are the calls of the source. Rule as the data show it: active = GI50 up to about 1.1 µM and inactive = higher.
Key:
Experiment in all cases: inhibition of tumour cell growth, NCI panel, 48 h
CAKI-1 = system: CAKI-1
SK-MEL-2 = system: SK-MEL-2
TK-10 = system: TK-10
T47D = system: T47D
SNB-75 = system: SNB-75
SF-295 = system: SF-295
IGROV-1 = system: IGROV-1
OVCAR-4 = system: OVCAR-4
UACC-62 = system: UACC-62
K562 = system: K562
EKVX = system: EKVX
OVCAR-8 = system: OVCAR-8
DU-145 = system: DU-145
LOX IMVI = system: LOX IMVI
MCF7 = system: MCF7
NCI/ADR-RES = system: NCI/ADR-RES
HL-60 = system: HL-60
BT-549 = system: BT-549
NCI-H23 = system: NCI-H23
KM12 = system: KM12
HT-29 = system: HT-29
SK-OV-3 = system: SK-OV-3
SNB-19 = system: SNB-19
MDA-N = system: MDA-N
RPMI-8226 = system: RPMI-8226
Malme-3M = system: Malme-3M
MDA-MB-231 = system: MDA-MB-231
NCI-H460 = system: NCI-H460
CCRF-CEM = system: CCRF-CEM
HCT-116 = system: HCT-116
HOP-62 = system: HOP-62
786-0 = system: 786-0
NCI-H226 = system: NCI-H226
HCT-15 = system: HCT-15
OVCAR-5 = system: OVCAR-5
U-251 = system: U-251
Hs-578T = system: Hs-578T
SF-268 = system: SF-268
NCI-H522 = system: NCI-H522
HOP-92 = system: HOP-92
SR = system: SR
OVCAR-3 = system: OVCAR-3
UACC-257 = system: UACC-257
ACHN = system: ACHN
A498 = system: A498
SK-MEL-28 = system: SK-MEL-28
A549 = system: A549
SN12C = system: SN12C
SW-620 = system: SW-620
MOLT-4 = system: MOLT-4
MDA-MB-435 = system: MDA-MB-435
HCC 2998 = system: HCC 2998
SK-MEL-5 = system: SK-MEL-5
COLO 205 = system: COLO 205
M14 = system: M14
SF-539 = system: SF-539
UO-31 = system: UO-31
PC-3 = system: PC-3

SMILES: OCCCSCCO
- GI50 (CAKI-1): > 100 µM (inactive)
- GI50 (SK-MEL-2): > 100 µM (inactive)
- GI50 (TK-10): > 100 µM (inactive)
- GI50 (T47D): > 100 µM (inactive)
- GI50 (SNB-75): > 100 µM (inactive)
- GI50 (SF-295): > 100 µM (inactive)
- GI50 (IGROV-1): > 100 µM (inactive)
- GI50 (OVCAR-4): > 100 µM (inactive)
- GI50 (UACC-62): > 100 µM (inactive)
- GI50 (K562): > 100 µM (inactive)
- GI50 (EKVX): > 100 µM (inactive)
- GI50 (OVCAR-8): > 100 µM (inactive)
- GI50 (DU-145): > 100 µM (inactive)
- GI50 (LOX IMVI): > 100 µM (inactive)
- GI50 (MCF7): > 100 µM (inactive)
- GI50 (NCI/ADR-RES): > 100 µM (inactive)
- GI50 (HL-60): > 100 µM (inactive)
- GI50 (BT-549): > 100 µM (inactive)
- GI50 (NCI-H23): > 100 µM (inactive)
- GI50 (KM12): > 100 µM (inactive)
- GI50 (HT-29): > 100 µM (inactive)
- GI50 (SK-OV-3): > 100 µM (inactive)
- GI50 (SNB-19): > 100 µM (inactive)
- GI50 (MDA-N): > 100 µM (inactive)
- GI50 (RPMI-8226): > 100 µM (inactive)
- GI50 (Malme-3M): > 100 µM (inactive)
- GI50 (MDA-MB-231): > 100 µM (inactive)
- GI50 (NCI-H460): > 100 µM (inactive)
- GI50 (CCRF-CEM): > 100 µM (inactive)
- GI50 (HCT-116): > 100 µM (inactive)
- GI50 (HOP-62): > 100 µM (inactive)
- GI50 (786-0): > 100 µM (inactive)
- GI50 (NCI-H226): > 100 µM (inactive)
- GI50 (HCT-15): > 100 µM
- GI50 (OVCAR-5): > 100 µM (inactive)
- GI50 (U-251): > 100 µM (inactive)
- GI50 (Hs-578T): > 100 µM (inactive)
- GI50 (SF-268): > 100 µM (inactive)
- GI50 (NCI-H522): > 100 µM (inactive)
- GI50 (HOP-92): > 100 µM (inactive)
- GI50 (SR): > 100 µM (inactive)
- GI50 (OVCAR-3): > 100 µM (inactive)
- GI50 (UACC-257): > 100 µM (inactive)
- GI50 (ACHN): > 100 µM (inactive)
- GI50 (A498): > 100 µM (inactive)
- GI50 (SK-MEL-28): > 100 µM (inactive)
- GI50 (A549): > 100 µM (inactive)
- GI50 (SN12C): > 100 µM (inactive)
- GI50 (SW-620): > 100 µM (inactive)
- GI50 (MOLT-4): > 100 µM (inactive)
- GI50 (MDA-MB-435): > 100 µM (inactive)
- GI50 (HCC 2998): > 100 µM (inactive)
- GI50 (SK-MEL-5): > 100 µM (inactive)
- GI50 (COLO 205): > 100 µM (inactive)
- GI50 (M14): > 100 µM (inactive)
- GI50 (SF-539): > 100 µM (inactive)
- GI50 (UO-31): > 100 µM (inactive)
- GI50 (PC-3): > 100 µM (inactive)

Reference: ChEMBL document CHEMBL1201862, “PubChem BioAssay data set” (2004)
